Data from publication PMC8288134, “Synthesis, potential antitumor activity, cell cycle analysis, and multitarget mechanisms of novel hydrazones incorporating a 4-methylsulfonylbenzene scaffold: a molecular docking study” (Journal of Enzyme Inhibition and Medicinal Chemistry, 2021).
Like-named read-outs stand apart in the source and are kept apart here.

Columns and labels:
786-0 = assay: NCI antitumor screen (SRB); type: cell-based; settings: Homo sapiens; for inhibition at 10 µM: one dose 10 µM, read-out: Growth inhibition percentage (GI%)
HCT-116 = assay: NCI antitumor screen (SRB); type: cell-based; settings: Homo sapiens; for inhibition at 10 µM: read-out: Growth inhibition percentage (GI%)
[1] = test system: renal cancer tumour cell lines; settings: cited from earlier work; for GI50: read-out: GI50 (subpanel average), reference drugs, ref https://dtp.cancer.gov/dtpstandard/dwindex/index.jsp; for CC50: read-out: LC50 (subpanel average), reference drugs, ref https://dtp.cancer.gov/dtpstandard/dwindex/index.jsp; for TGI (subpanel average): reference drugs, ref https://dtp.cancer.gov/dtpstandard/dwindex/index.jsp
SK-MEL-5 = assay: NCI antitumor screen (SRB); type: cell-based, human; settings: for inhibition at 10 µM: read-out: Growth inhibition percentage (GI%)
BT-549 [2] = assay: NCI antitumor screen (SRB); type: cell-based; settings: Homo sapiens; for inhibition at 10 µM: one dose 10 µM, read-out: Growth inhibition percentage (GI%)
MALME-3M = assay: NCI antitumor screen (SRB); type: cell-based; settings: Homo sapiens; for inhibition at 10 µM: one dose 10 µM, read-out: Growth inhibition percentage (GI%)
SR = assay: NCI antitumor screen (SRB); type: cell-based; settings: Homo sapiens; for inhibition at 10 µM: one dose 10 µM, read-out: Growth inhibition percentage (GI%)
IGROV1 [3] = assay: NCI antitumor screen (SRB); type: cell-based; settings: Homo sapiens; for inhibition at 10 µM: IGROV-1, one dose 10 µM, read-out: Growth inhibition percentage (GI%)
OVCAR-4 = assay: NCI antitumor screen (SRB); type: cell-based; settings: Homo sapiens; for inhibition at 10 µM: one dose 10 µM, read-out: Growth inhibition percentage (GI%)
OVCAR-3 = assay: NCI antitumor screen (SRB); type: cell-based; settings: Homo sapiens; for inhibition at 10 µM: one dose 10 µM, read-out: Growth inhibition percentage (GI%)
KM12 = assay: NCI antitumor screen (SRB); type: cell-based; settings: Homo sapiens; for inhibition at 10 µM: one dose 10 µM, read-out: Growth inhibition percentage (GI%)
SW-620 = assay: NCI antitumor screen (SRB); type: cell-based; settings: Homo sapiens; for inhibition at 10 µM: one dose 10 µM, read-out: Growth inhibition percentage (GI%)
SF-295 = assay: NCI antitumor screen (SRB); type: cell-based; settings: Homo sapiens; for inhibition at 10 µM: one dose 10 µM, read-out: Growth inhibition percentage (GI%)
HL60 cells [4] = assay: Cell cycle analysis (PI, flow cytometry); type: cell-based, human; settings: HL60, 10.0 µM, 24 h
Procedure: Antitumor agents can induce apoptosis by activating signalling pathways, leading to G2/M phase arrest[73]^,[74]. Flow cytometry is used to measure cell growth in different cell cycle phases (pre-G1, G1, S, and G2/M)[73]^,[74]. […]. We used the solvent DMSO as a negative control. Briefly, we incubated HL60 cells with 10 µM compounds 6, 9, 16, and 20 for 24 h. Compounds 6, 9, 16, and 20 interfered with the normal cell cycle of HL60 cells. […] […].
Cell cycle analysis was carried out similar to our previous report using the Leukaemia HL-60 cell line stained with the DNA fluorochrome PI and analysed by FACSCalibur flow cytometer[40]^,[74].
Using a method similar to that of our previous report, cell cycle analysis was carried out using Leukemia HL-60 cell line, stained with the DNA fluorochrome PI, and analyzed by FACSCalibur flow cytometer. Leukemia HL-60 cell was seeded at a density of 2 × 10^5 cells/well and incubated for 24 h in six-well plates. Fetal bovine serum (10%) was added, and the cells were incubated at 37°C in an atmosphere of 5% CO2. The medium was replaced with 1% (v/v) dimethyl sulfoxide (DMSO), containing 10.0 μM of compound 9. […]
Afterward, […]
the samples were analyzed using a FACSCalibur flow cytometer. […]
(AA) to PGH2. […]

HL60 cells [5] = assay: Annexin V-FITC/PI apoptosis assay; type: cell-based, human; settings: HL60, 10 µM, 24 h
Procedure: Apoptosis induction is the most important mechanism by which major chemotherapeutics kill cancer cells. Apoptosis causes cellular changes whereby the translocation of phosphatidylserine (PS) occurs through the plasma membrane from the inside to the outside. Annexin-V can bind to PS, which can be used as a sensitive probe for PS on the outer side of the plasma membrane. […] The AV/PI staining of HL60 cells was performed at a mixed molar concentration of 10 µM with compounds 6, 9, 16, and 20 for 24 h. Figure 4 and Table 5 show the results of treating HL60 cells with compounds 6, 9, 16, and 20 for 24 h.
According to our previous report, apoptosis induction was performed using the Leukaemia HL-60 cell line and well-established Annexin 5-FITC/PI detection kit. The cell line samples were analysed using FACSCalibur flow cytometer[40]^,[72]. […]
[(Ti-Tz)/Tz)] x 100 for concentration of which Ti ≤ Tz.
The induction of apoptosis was performed according to our previous report using Leukemia HL-
60 cell line and well-established Annexin 5-FITC/PI detection kit. The cell line samples were
analyzed using a FACSCalibur flow cytometer. […]

RXF 393 = test system: RXF 393; parameters: method as in https://dtp.cancer.gov/dtpstandard/dwindex/index.jsp; settings: reference drugs, ref https://dtp.cancer.gov/dtpstandard/dwindex/index.jsp; cited from earlier work
U251 = test system: U251; parameters: method as in https://dtp.cancer.gov/dtpstandard/dwindex/index.jsp; settings: reference drugs, ref https://dtp.cancer.gov/dtpstandard/dwindex/index.jsp; cited from earlier work
BT-549 [6] = test system: BT-549; parameters: method as in https://dtp.cancer.gov/dtpstandard/dwindex/index.jsp; settings: reference drugs, ref https://dtp.cancer.gov/dtpstandard/dwindex/index.jsp; cited from earlier work
IGROV1 [7] = test system: IGROV1; parameters: method as in https://dtp.cancer.gov/dtpstandard/dwindex/index.jsp; settings: reference drugs, ref https://dtp.cancer.gov/dtpstandard/dwindex/index.jsp; cited from earlier work
MDA-MB-468 = test system: MDA-MB-468; parameters: method as in https://dtp.cancer.gov/dtpstandard/dwindex/index.jsp; settings: reference drugs, ref https://dtp.cancer.gov/dtpstandard/dwindex/index.jsp; cited from earlier work
DU-145 = test system: DU-145; parameters: method as in https://dtp.cancer.gov/dtpstandard/dwindex/index.jsp; settings: reference drugs, ref https://dtp.cancer.gov/dtpstandard/dwindex/index.jsp; cited from earlier work
SK-MEL-28 = test system: SK-MEL-28; parameters: method as in https://dtp.cancer.gov/dtpstandard/dwindex/index.jsp; settings: reference drugs, ref https://dtp.cancer.gov/dtpstandard/dwindex/index.jsp; cited from earlier work
NCI-H460 = test system: NCI-H460; parameters: method as in https://dtp.cancer.gov/dtpstandard/dwindex/index.jsp; settings: reference drugs, ref https://dtp.cancer.gov/dtpstandard/dwindex/index.jsp; cited from earlier work
[8] = Homo sapiens, SK-MEL-5, one dose 10 µM
[9] = five concentrations 0.01-100 µM

SMILES | inhibition at 10 µM (786-0) | inhibition at 10 µM (HCT-116) | inhibition at 10 µM (SK-MEL-5; [8]) | inhibition at 10 µM (BT-549 [2]) | inhibition at 10 µM (MALME-3M) | inhibition at 10 µM (SR) | inhibition at 10 µM (IGROV1 [3]) | inhibition at 10 µM (OVCAR-4) | inhibition at 10 µM (OVCAR-3) | inhibition at 10 µM (KM12) | inhibition at 10 µM (SW-620) | inhibition at 10 µM (SF-295) | %G0-G1 (HL60 cells [4]) | %G2-M (HL60 cells [4]) | %Pre-G1 (HL60 cells [4]) | %S (HL60 cells [4]) | Apoptosis, early (HL60 cells [5]) | Apoptosis, late (HL60 cells [5]) | Apoptosis, total (annexin V-FITC positive cells) (HL60 cells [5]) | Necrosis (HL60 cells [5]) | further results
O=c1[nH]cc(F)c(=O)[nH]1 [Compound 5-Fu, 5-fluorouracil, reference compound] | 51.3% | 82.2% | 66.3% | 62.2% | 41.8% | 75.2% | 48.8% | 40.6% | 52.6% | 59.3% | 49.9% | 30.9% | – | – | – | – | – | – | – | – | GI50 [1]: 930 nM; CC50 [1]: > 100000 nM; TGI (subpanel average) [1]: 46250 nM
CS(=O)(=O)c1ccc(C(=O)NN=Cc2cccc3ccccc23)cc1 [Compound 6, 4-(Methylsulfonyl)-N'-(naphthalen-1-ylmethylene)benzohydrazide] | < 10% | 38.2% | 32.8% | 12.4% | 30.3% | 67.5% | 36.8% | < 10% | 32.2% | 49.2% | 63.8% | 24% | 48.31% | 23.27% | 12.57% | 28.42% | 3.52% | 7.64% | 12.57% | 1.41% | –
Cc1ccc(C=NNC(=O)c2ccc(S(C)(=O)=O)cc2)cc1 [Compound 9, N'-(4-Methylbenzylidene)-4-(methylsulfonyl)benzohydrazide] | < 10% | 13.9% | 13.5% | < 10% | 15.2% | 43.8% | 12.3% | < 10% | < 10% | 25.1% | 15.2% | < 10% | 43.15% | 29.44% | 16.89% | 27.41% | 5.66% | 9.04% | 16.89% | 2.19% | –
CS(=O)(=O)c1ccc(C(=O)N/N=C/c2ccccc2O)cc1 [Compound 16] | 67% | 70.9% | 67.8% | 47% | 36.5% | 79.6% | 59% | 56.3% | 77.2% | 65.9% | 56.7% | 62% | 39.42% | 38.09% | 22.41% | 22.49% | 7.34% | 13.41% | 22.41% | 1.66% | –
CCN(CC)c1ccc(/C=N/NC(=O)c2ccc(S(C)(=O)=O)cc2)c(O)c1 [Compound 20] | 84.6% | 81.6% | – | 69.3% | 86% | 91% | 78.8% | 65.3% | 66.6% | 74.1% | 67% | 78.6% | 36.28% | 34.29% | 24.31% | 29.43% | 8.42% | 12.66% | 24.31% | 3.23% | GI50 (786-0; [9]): 182 nM; GI50 (HCT-116): 121 nM; inhibition at 10 µM (SK-MEL-5; Homo sapiens, SK-MEL-5, SK-MEL-5, one dose 10 µM): 100%; GI50 (SK-MEL-5; Homo sapiens, SK-MEL-5, five concentrations 0.01-100 µM): 223 nM; Growth inhibition percentage (GI%) (SK-MEL-5; SK-MEL-5, one dose 10 µM): >100%; GI50 (BT-549 [2]; [9]): 346 nM; GI50 (MALME-3M; [9]): 440 nM; GI50 (SR; [9]): 63 nM; GI50 (IGROV1 [3]; IGROV-1, five concentrations 0.01-100 µM): 196 nM; GI50 (OVCAR-4; [9]): 63 nM; GI50 (OVCAR-3; [9]): 125 nM; GI50 (KM12; [9]): 404 nM; GI50 (SW-620; [9]): 387 nM; GI50 (SF-295; [9]): 200 nM
CNC(=O)c1cc(Oc2ccc(NC(=O)Nc3ccc(Cl)c(C(F)(F)F)c3)cc2)ccn1 [Sorafenib, sorafenib] | – | – | – | – | – | – | – | – | – | – | – | – | – | – | – | – | – | – | – | – | GI50 (RXF 393): 2510 nM; GI50 (U251): 1990 nM; GI50 (BT-549 [6]): 3160 nM; GI50 [1]: 2860 nM; CC50 [1]: 54800 nM; TGI (subpanel average) [1]: 10860 nM; GI50 (IGROV1 [7]): 2510 nM; GI50 (MDA-MB-468): 1990 nM; GI50 (DU-145): 3160 nM; GI50 (SK-MEL-28): 2510 nM; GI50 (NCI-H460): 2510 nM
